Results from patent publication US20200071326A1, “TAM KINASE INHIBITORS” (Syros Pharmaceuticals, Inc., priority 2017, published 2020).
Counter-ions that a name gives are not always drawn.

Legend:
FLT3 = target: T1, FLT3 (Homo sapiens, UniProt P36888); assay: IMAP fluorescence polarization kinase assay, FLT3; type: biochemical; settings: ATP 2.74 μM, enzyme 2.5 nM, 240 minutes, read-out: FLT3 inhibitory constant (Ki)
T1 sequence (P36888 27-993): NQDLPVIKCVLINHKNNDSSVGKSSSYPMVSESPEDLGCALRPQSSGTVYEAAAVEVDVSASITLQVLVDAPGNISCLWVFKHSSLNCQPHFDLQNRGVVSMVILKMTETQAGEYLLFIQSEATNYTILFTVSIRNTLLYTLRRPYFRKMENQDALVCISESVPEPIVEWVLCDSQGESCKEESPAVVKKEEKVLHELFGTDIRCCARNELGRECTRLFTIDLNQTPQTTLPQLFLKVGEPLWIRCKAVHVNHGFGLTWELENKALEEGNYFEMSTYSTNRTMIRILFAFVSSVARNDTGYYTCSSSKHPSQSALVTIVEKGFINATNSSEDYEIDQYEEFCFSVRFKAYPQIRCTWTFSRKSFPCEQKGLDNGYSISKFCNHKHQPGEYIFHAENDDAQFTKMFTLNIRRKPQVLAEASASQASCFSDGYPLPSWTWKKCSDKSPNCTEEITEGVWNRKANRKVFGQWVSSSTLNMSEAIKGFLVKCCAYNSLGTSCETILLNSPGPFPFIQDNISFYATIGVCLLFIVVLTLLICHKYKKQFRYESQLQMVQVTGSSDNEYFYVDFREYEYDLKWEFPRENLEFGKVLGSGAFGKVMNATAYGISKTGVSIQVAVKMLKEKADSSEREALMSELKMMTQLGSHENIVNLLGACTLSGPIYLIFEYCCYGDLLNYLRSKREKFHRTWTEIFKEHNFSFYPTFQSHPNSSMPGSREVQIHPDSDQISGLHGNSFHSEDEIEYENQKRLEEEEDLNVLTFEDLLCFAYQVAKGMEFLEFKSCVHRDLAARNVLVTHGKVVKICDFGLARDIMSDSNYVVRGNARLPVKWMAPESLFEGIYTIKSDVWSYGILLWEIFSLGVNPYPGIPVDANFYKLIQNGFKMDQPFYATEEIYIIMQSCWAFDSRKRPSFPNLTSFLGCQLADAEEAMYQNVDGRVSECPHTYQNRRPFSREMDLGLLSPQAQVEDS
Experimental: (§1) Activities of compounds against each of TYRO3, AXL, and MERTK as well as against FLT3, were determined using an immobilized metal ion affinity-based fluorescence polarization (“IMAP”) assay. A fluorescently-labeled substrate peptide was phosphorylated in the kinase reaction, after which a binding solution containing large trivalent metal-based nanoparticles was added and the phosphorylated substrate binds to these beads. This reduces the rotational speed of the substrate which is then detected using fluorescence polarization as a read-out.
(§2) The substrates used for each enzyme are as follows: AXL: 5F1-KKKKEEIYFFFG-NH2(SEQ ID NO:1); FLT3: 5F1-KKKKEEIYFFF-NH2 (SEQ ID NO:2); MERTK: 5F1-EFPIYDFLPAKKK-NH2 (SEQ ID NO:3); and TYRO3: 5F1-EFPIYDFLPAKKK-NH2 (SEQ ID NO:4).
(§3) This assay was performed in a 384-well, polystyrene microplate in a final volume of 8 μl. Substrate (final concentration=400 nM), ATP (final concentrations=24.7μM for AXL; 2.74 μM for FLT3; 2.69 μM for MERTK; and 54.0 μM for TYRO3), compounds and enzyme (final concentrations=2.5 nM for AXL, FLT3 and TYRO3; 1.5 nM for MERTK) were pipetted in this order into the appropriate reaction buffer (AXL: 50 mM HEPES, pH 8.0, 1 mM DTT, 10 mM MgCl2, 0.01% BRU35, 0.01% Triton X-100; FLT3: 50 mM HEPES, pH 8.0, 1 mM DTT, 10 mM MgCl2, 0.01% Triton X-100, 0.01% NP40; MERTK/TYRO3: 50 mM HEPES, pH 8.0, 1 mM DTT, 10 mM MgCl2, 0.01% Triton X-100) and incubated at room temperature for varying times (AXL, FLT3 and MERTK: 240 minutes; TYRO3: 60 minutes). IMAP binding solution was then dispensed, the plate incubated for 60 minutes at room temperature and the fluorescence polarization measured. Data were analyzed using XLfit.

AXL = target: T2, AXL (Homo sapiens, UniProt P30530); assay: IMAP fluorescence polarization kinase assay, AXL; type: biochemical; settings: ATP 24.7 μM, enzyme 2.5 nM, 240 minutes, read-out: AXL inhibitory constant (Ki)
T2 sequence (P30530 26-894): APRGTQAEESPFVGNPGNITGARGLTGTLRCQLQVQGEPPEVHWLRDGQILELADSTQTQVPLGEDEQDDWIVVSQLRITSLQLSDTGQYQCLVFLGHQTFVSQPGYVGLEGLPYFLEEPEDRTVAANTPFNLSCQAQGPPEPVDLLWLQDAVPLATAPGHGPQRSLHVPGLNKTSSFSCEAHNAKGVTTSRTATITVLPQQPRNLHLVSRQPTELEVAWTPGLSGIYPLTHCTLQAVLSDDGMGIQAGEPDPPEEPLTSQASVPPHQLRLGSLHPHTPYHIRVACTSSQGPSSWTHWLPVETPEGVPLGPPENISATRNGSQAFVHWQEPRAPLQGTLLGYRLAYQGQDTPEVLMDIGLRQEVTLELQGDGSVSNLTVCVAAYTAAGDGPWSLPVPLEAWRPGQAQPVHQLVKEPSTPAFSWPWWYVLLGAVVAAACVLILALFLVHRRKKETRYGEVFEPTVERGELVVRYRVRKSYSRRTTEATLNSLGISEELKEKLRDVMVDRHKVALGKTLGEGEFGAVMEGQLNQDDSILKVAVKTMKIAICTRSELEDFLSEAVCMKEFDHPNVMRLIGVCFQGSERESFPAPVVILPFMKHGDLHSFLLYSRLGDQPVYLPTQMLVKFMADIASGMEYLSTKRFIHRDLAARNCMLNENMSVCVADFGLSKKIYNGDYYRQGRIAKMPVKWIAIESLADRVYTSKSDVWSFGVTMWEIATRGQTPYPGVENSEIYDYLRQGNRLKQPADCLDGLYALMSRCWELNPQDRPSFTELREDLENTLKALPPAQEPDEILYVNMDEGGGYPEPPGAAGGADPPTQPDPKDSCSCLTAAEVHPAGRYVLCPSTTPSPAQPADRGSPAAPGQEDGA
Experimental: as §1, §2, §3

Ki (FLT3) [µM] | Ki (AXL) [µM] | SMILES
< 0.1 | 1 to 10 | CCCc1cc2c(N[C@H]3CC[C@H](N)CC3)c(C(=O)Nc3ccc(F)cc3)cnc2[nH]1 [Compound 100, 4-(((1r,4r)-4-aminocyclohexyl)amino)-N-(4-fluorophenyl)-2-propyl-1H-pyrrolo [2,3-b]pyridine-5-carboxamide hydrochloride]
0.1 to 1 | > 10 | CCCc1cc2c(N[C@H]3CC[C@H](O)CC3)c(C(=O)Nc3ccc(F)cc3)cnc2[nH]1 [Compound 101]
< 0.1 | 0.1 to 1 | CCCc1cc2c(N[C@H]3CC[C@H](O)CC3)c(C(=O)NCc3ccc(-n4ccnc4)cc3)cnc2[nH]1 [Compound 102]
< 0.1 | 0.1 to 1 | Cc1cc2c(N[C@H]3CC[C@H](N)CC3)c(C(=O)Nc3ccc(F)cc3)cnc2[nH]1 [Compound 103]
0.1 to 1 | 1 to 10 | CCCc1cc2c(N[C@H]3CC[C@H](O)CC3)c(C(=O)NC3CCN(c4ncccn4)CC3)cnc2[nH]1 [Compound 104]
< 0.1 | 0.1 to 1 | CCCc1cc2c(N[C@H]3CC[C@H](O)CC3)c(-c3ccc(CN4CCOCC4)cn3)cnc2[nH]1 [Compound 105]
0.1 to 1 | > 10 | CCCc1cc2c(N[C@H]3CC[C@H](O)CC3)c(-c3ccc(CN4CCOCC4)cc3)cnc2[nH]1 [Compound 106, (1r,4r)-4-((5-(4-(morpholinomethyl)phenyl)-2-propyl-1H-pyrrolo[2,3-b]pyridin-4-yl)amino)cyclohexanol hydrochloride]
0.1 to 1 | 1 to 10 | CCCc1cc2c(N[C@H]3CC[C@H](O)CC3)c(-c3cnn(CCN(C)C)c3)cnc2[nH]1 [Compound 107]
0.1 to 1 | 1 to 10 | CCCc1cc2c(N[C@H]3CC[C@H](N)CC3)c(-c3cnn(C)c3)cnc2[nH]1 [Compound 108, (1r,4r)-N1-(5-(1-methyl-1H-pyrazol-4-yl)-2-propyl-1H-pyrrolo[2,3-b]pyridine-4-yl)cyclohexane-1,4-diamine hydrochloride]
< 0.1 | 0.1 to 1 | CCCc1cc2c(N[C@H]3CC[C@H](O)CC3)c(-c3ccc(CNCC45C[C@H]6C[C@@H](C4)C[C@@H](C5)C6)cn3)cnc2[nH]1 [Compound 109]
1 to 10 | 1 to 10 | N[C@H]1CC[C@H](Nc2c(C(=O)NCc3ccc(-n4ccnc4)cc3)cnc3[nH]c(-c4ccccc4)cc23)CC1 [Compound 110]
< 0.1 | 0.1 to 1 | CCCc1cc2c(N[C@H]3CC[C@H](N)CC3)c(-c3cc(NC)ncn3)cnc2[nH]1 [Compound 111, (1r,4r)-N^1-(5-(6-(methylamino)pyrimidin-4-yl)-2-propyl-1H-pyrrolo[2,3-b]pyridine-4-yl)cyclohexane-1,4-diamine hydrochloride]
< 0.1 | 0.1 to 1 | CCCc1cc2c(N[C@H]3CC[C@H](N)CC3)c(-c3cc(NC(C)C)ncn3)cnc2[nH]1 [Compound 112]
< 0.1 | 1 to 10 | CCCc1cc2c(N[C@H]3CC[C@H](N)CC3)c(-c3ccccn3)cnc2[nH]1 [Compound 113]
< 0.1 | 0.1 to 1 | CCCc1cc2c(N[C@H]3CC[C@H](N)CC3)c(-c3ccc(F)cn3)cnc2[nH]1 [Compound 114]
< 0.1 | < 0.1 | CCCc1cc2c(N[C@H]3CC[C@H](N)CC3)c(-c3ccc(S(=O)(=O)N4CCOCC4)cn3)cnc2[nH]1 [Compound 115]
< 0.1 | 0.1 to 1 | CCCc1cc2c(N[C@H]3CC[C@H](N)CC3)c(-c3cc(N)ncn3)cnc2[nH]1 [Compound 116]
< 0.1 | 0.1 to 1 | CCCc1cc2c(N[C@H]3CC[C@H](N)CC3)c(-c3nccs3)cnc2[nH]1 [Compound 117]
< 0.1 | 0.1 to 1 | CCCc1cc2c(N[C@H]3CC[C@H](N)CC3)c(-c3ccnc(N4CCCC4)n3)cnc2[nH]1 [Compound 118, (1r,4r)-N1-(2-propyl-5-(2-(pyrrolidin-1-yl)pyrimidin-4-yl)-1H-pyrrolo[2,3-b]pyridine-4-yl)cyclohexane-1,4-diamine hydrochloride]
< 0.1 | 0.1 to 1 | CCc1cc2c(N[C@H]3CC[C@H](N)CC3)c(C(=O)NCc3ccc(-n4ccnc4)cc3)cnc2[nH]1 [Compound 119, N-(4-(1H-imidazol-1-yl)benzyl)-4-(((1r,4r)-4-aminocyclohexyl)amino)-2-ethyl-1H-pyrrolo[2,3-b]pyridine-5-carboxamide]
< 0.1 | 1 to 10 | CCCc1cc2c(N[C@H]3CC[C@H](N)CC3)c(-c3ccc(N)cn3)cnc2[nH]1 [Compound 120]
< 0.1 | 0.1 to 1 | CCCc1cc2c(N[C@H]3CC[C@H](N)CC3)c(C(=O)NCc3ccc(-n4ccnc4)cc3)cnc2[nH]1 [Compound 121]
< 0.1 | 0.1 to 1 | CCCc1cc2c(N[C@H]3CC[C@H](N)CC3)c(-c3cc(OC)ncn3)cnc2[nH]1 [Compound 122]
< 0.1 | < 0.1 | CCCc1cc2c(N[C@H]3CC[C@H](N)CC3)c(-c3ccnc(N)n3)cnc2[nH]1 [Compound 123]
0.1 to 1 | 0.1 to 1 | CCCc1cc2c(N[C@H]3CC[C@H](N)CC3)c(C(=O)NC3CCOCC3)cnc2[nH]1 [Compound 124]
< 0.1 | 0.1 to 1 | CCCc1cc2c(N[C@H]3CC[C@H](O)CC3)c(-c3ccc(CN4CCCC4)cn3)cnc2[nH]1 [Compound 125]
< 0.1 | 0.1 to 1 | N[C@H]1CC[C@H](Nc2c(C(=O)NCc3ccc(-n4ccnc4)cc3)cnc3[nH]c(C4CCCC4)cc23)CC1 [Compound 126]
< 0.1 | 0.1 to 1 | CCCc1cc2c(N[C@H]3CC[C@H](N)CC3)c(-c3ccc(C)nn3)cnc2[nH]1 [Compound 127]
